Experimental data taken from US6506775B1, “Substituted benzylaminopiperidine compounds” (Pfizer INC, priority 1995, dated 2003).

Legend:
[1] = test system: [Sar^9, Met(O2)^11]substance P-induced tapping; assay: [Sar9, Met(O2)11]substance P-induced tapping test in gerbils; type: in vivo; conditions: repetitive hind paw tapping, Examples 3 and 5 compared with the corresponding no halosubstituted compounds
Procedure: The activity of the compounds of this invention against CNS disorders is determined in a [Sar^9, Met(O2)^11]substance P-induced tapping test in gerbils. More specifically, gerbils are lightly anesthetized with ether and the skull surface is exposed. [Sar^9, Met(O2)^11]substance P or vehicle (5 μl) are administered directly into the lateral ventricles via a 25 gauge needle inserted 3.5 mm below lambda. Following injection, gerbils are placed in 2 l beaker individually and monitored for repetitive hind paw tapping. Some compounds prepared in the following Examples were tested in accordance with these testing methods.

Row | SMILES | melting point [°C] | activity against CNS disorders [1]
1 | Cl.Cl.Fc1ccc(C(F)(F)F)cc1CN[C@H]1CCCN[C@H]1c1ccccc1 | 195 to 203 | –
2 | COc1ccc(C(C)(C)C#CC(F)(F)F)cc1CN[C@H]1CCCN[C@H]1c1ccccc1.Cl.Cl | 225 to 227 | –
3 | Cl.Cl.FC(F)(F)c1ccc(Oc2ccccc2)c(CN[C@H]2CCCN[C@H]2c2ccccc2)c1 | 190 to 197 | –
4 | COc1ccc(C(F)(C(F)(F)F)C(F)(F)F)cc1CN[C@H]1CCCN[C@H]1c1ccccc1.Cl.Cl | 265 to 270 | –
5 | CC(F)(F)c1ccc(OC(F)(F)F)c(CN[C@H]2CCCN[C@H]2c2ccccc2)c1.Cl.Cl | 172 to 174 | –
6 | COc1ccc(C(F)(F)F)cc1CN[C@H]1CCCN[C@H]1c1ccccc1.Cl.Cl [Example 3, (2S,3S)-3-(2-Methoxy-5-(trifluoromethyl)benzyl)amino-2-phenylpiperidine dihydrochloride] | 228 to 233 | unexpectedly improved activity against CNS disorders
7 | COc1ccc(C(C(F)(F)F)C(F)(F)F)cc1CN[C@H]1CCCN[C@H]1c1ccccc1.Cl.Cl [Example 5, (2S,3S)-2-Phenyl-3-(5-(2,2,2-trifluoro-1-(trifluoromethyl)ethyl)-2-methoxybenzyl)aminopiperidine dihydrochloride] | 290 to 294 | unexpectedly improved activity against CNS disorders
